Assay results reported in patent publication US20130023504A1, “Modulation of Prostaglandin/Cyclooxygenase Metabolic Pathways” (HUNTER-FLEMING LIMITED, priority 2006, published 2013).

Test system: rat sensory neurones
Test: Neurite growth of sensory neurones in primary culture (anti β-Tubulin, In Cell Analyzer)
Type: cell-based
Protocol: Rat sensory neurones were prepared according to the method described by Hall et al. 1997 (Hall A K, Ai X, Hickman G E, MacPhedran S E, Nduaguba C O, Robertson C P. The generation of neuronal heterogeneity in a rat sensory ganglion. J. Neurosci. 1997 Apr. 15; 17(8):2775-84). Briefly, female rats (15 days gestation) were killed by cervical dislocation (Rats Wistar; Janvier, Le Genest-St-Isle, France) and the foetuses removed from the uterus. Their spinal cords with the dorsal root ganglia (DRG) were removed and placed in ice-cold medium of Leibovitz (L15, Fisher 11415-049) containing Penicillin 50 Ul/ml-Streptomycin 50 pg/ml (PS, 1%) and bovine serum albuminutes (BSA 1%, Sigma A6003). The DRG were recovered and dissociated by trypsinisation for 20 minutes at 37° C. (trypsin EDTA 10×, 10%, Fisher 15400054) diluted in PBS without calcium and magnesium (Fisher 2007-03). The reaction was stopped by addition of Dulbecco modified Eagle medium (DMEM, Fisher 21969-035) containing DNase I grade II (0.1 mg/ml Roche diagnostic 104159) and foetal bovine serum (FBS 10%, Fisher 10270-098). The cell suspension was triturated with a 10 ml pipette and centrifuged at 350×g for 10 minutes at room temperature. The pellet of dissociated cells was then resuspended in defined culture medium.
Viable cells were counted in a Neubauer cytometer using the trypan blue exclusion test (Sigma) and seeded at a density of 25 000 cells/well in 96 well-plates (Nunc). Wells were pre-coated with poly-L-lysine (10 μg/ml, Sigma P2636) in ultra pure sterile water (Merck Eurolab 60759.01).
Cells were allowed to adhere for 2 hours and maintained in a humidified incubator at 37° C. in 5% CO2/95% air atmosphere.
The culture medium was changed into a defined culture medium after a 12 hours incubation period following the conditions described below:
NGF 50 ng/ml and 10 ng/ml (in 0.1% DMSO)
After 6 hours, 12 hours and 24 hours of incubation with 7β-OH EPIA, cells were fixed for 5 minutes in an ethanol/acetic acid solution (95%/5%) at −20° C. and rinsed 3 times in PBS.
Motor neurones and sensory neurones were labelled by monoclonal anti β-Tubulin antibody (Sigma T8660) diluted at 1:400 in incubation solution (PBS with 5% of FCS and 0.1% of saponin, Sigma S-7900). This antibody specifically labels neurone cell bodies and neurites.
After 2 hours of incubation, the cells were washed in PBS and incubated with Alexa Fluor 488 goat anti mouse IgG (Molecular Probes A11001) diluted at 1:300 in incubation solution to reveal the 8-Tubulin III antibodies.
Analysis of the total length of neurones labelled with anti β-Tubulin antibodies (neurones) were carried out using In Cell Analyzer 1000 3.2.Workstation software.
The results were expressed in percentage compared to the vehicle. Comparison of groups was carried out using the unpaired T test.

## CC12CCC3C(C1CCC2=O)[C@@H](O)C[C@H]1C[C@@H](O)CCC31C (stereo partly drawn) [Compound 7β-OH-EPIA, 7β-hydroxy-EPIAndrosterone]
10^−4 M, 6 hours
  Neurites length per field, % Vehicle: 101%
  Neurites length per field, Mean: 103.2 μm
10^−4 M, 12 hours
  Neurites length per field, % Vehicle: 97%
  Neurites length per field, Mean: 290.3 μm
10^−4 M, 24 hours
  Neurites length per field, % Vehicle: 104%
  Neurites length per field, Mean: 228.6 μm
10^−5 M, 6 hours
  Neurites length per field, % Vehicle: 112%
  Neurites length per field, Mean: 114.8 μm
10^−5 M, 12 hours
  Neurites length per field, % Vehicle: 108%
  Neurites length per field, Mean: 321.0 μm
10^−5 M, 24 hours
  Neurites length per field, % Vehicle: 111%
  Neurites length per field, Mean: 244.8 μm
10^−6 M, 6 hours
  Neurites length per field, % Vehicle: 96%
  Neurites length per field, Mean: 97.7 μm
10^−6 M, 12 hours
  Neurites length per field, % Vehicle: 96%
  Neurites length per field, Mean: 287.0 μm
10^−6 M, 24 hours
  Neurites length per field, % Vehicle: 86%
  Neurites length per field, Mean: 189.9 μm
10^−7 M, 6 hours
  Neurites length per field, % Vehicle: 149%
  Neurites length per field, Mean: 151.8 μm
10^−7 M, 6 hours, listed as 7β-OH EPIA
  Neurites length per field, % Vehicle: 171%
10^−7 M, 12 hours
  Neurites length per field, % Vehicle: 134%
  Neurites length per field, Mean: 398.4 μm
10^−7 M, 24 hours
  Neurites length per field, % Vehicle: 173%
  Neurites length per field, Mean: 380.8 μm
10^−8 M, 6 hours
  Neurites length per field, % Vehicle: 176%
  Neurites length per field, Mean: 179.3 μm
10^−8 M, 12 hours
  Neurites length per field, % Vehicle: 123%
  Neurites length per field, Mean: 368.3 μm
10^−8 M, 24 hours
  Neurites length per field, % Vehicle: 174%
  Neurites length per field, Mean: 384.3 μm
10^−9 M, 6 hours
  Neurites length per field, % Vehicle: 171%
  Neurites length per field, Mean: 174.2 μm
10^−9 M, 6 hours, listed as 7β-OH EPIA
  Neurites length per field, % Vehicle: 149%
10^−9 M, 12 hours
  Neurites length per field, % Vehicle: 145%
  Neurites length per field, Mean: 431.8 μm
10^−9 M, 24 hours
  Neurites length per field, % Vehicle: 147%
  Neurites length per field, Mean: 324.9 μm
